Numbered stars: 1 amine (or outer) side, 2 acyl side, 3 side chain; on linkers, the order of the positions; unused ones are H or OH. Bridge positions count the residues as written; N and C are the ends. Square brackets hold non-standard residues; d marks the D form. Peptide text beside a SMILES is read from it. * marks the point of attachment. 2Thenoyl(5-Cl) = O=C(c1ccc(Cl)s1)*; Benzoyl(4-Cl) = O=C(c1ccc(Cl)cc1)*; Cysteamide = C(CS[*:3])N[*:1]; Dap = NC[C@H](N)C(=O)O; Mpa = O=C(O)CCS
Target: MDM2 (Homo sapiens, UniProt Q00987)
Assay: MDM2 binding screen: displacement of fluorescent p53 peptide probe FP53 (fluorescence polarization)
Details: crude macrocycle reactions; for fraction fluorescent probe displaced, Screen: initial screen
Summary of the method: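 Single-point screen: one fluorescence anisotropy reading at 25 °C (485 nm excitation, 535 nm emission) per macrocycle. Crude macrocycle reactions, final 10 µM, were scored for displacing the fluorescent p53 peptide from human MDM2.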

Sequence of MDM2 (Q00987 whole entry): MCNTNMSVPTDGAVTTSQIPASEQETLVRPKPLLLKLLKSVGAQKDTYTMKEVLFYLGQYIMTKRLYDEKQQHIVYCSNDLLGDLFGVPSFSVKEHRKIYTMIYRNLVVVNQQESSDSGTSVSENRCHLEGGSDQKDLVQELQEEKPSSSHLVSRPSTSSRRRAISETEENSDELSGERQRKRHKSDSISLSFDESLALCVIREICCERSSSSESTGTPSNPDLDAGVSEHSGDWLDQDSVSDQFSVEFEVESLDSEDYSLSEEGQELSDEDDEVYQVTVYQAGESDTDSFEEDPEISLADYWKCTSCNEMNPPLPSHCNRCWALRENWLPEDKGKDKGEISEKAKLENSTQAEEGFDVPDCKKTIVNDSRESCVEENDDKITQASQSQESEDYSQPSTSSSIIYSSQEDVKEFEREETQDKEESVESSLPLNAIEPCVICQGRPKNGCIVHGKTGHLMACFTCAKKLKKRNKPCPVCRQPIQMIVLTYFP

fraction fluorescent probe displaced, Screen (Acid 91) | fraction fluorescent probe displaced, Replicate (Acid 91) | fraction fluorescent probe displaced, Screen (Acid 25) | fraction fluorescent probe displaced, Replicate (Acid 25) | Structure (SMILES) | other results
– | – | 0.25 | 0.30 | O=C1CCSSCCNC(=O)[C@H](Cc2c[nH]c3ccccc23)NC(=O)[C@H](CNC(=O)c2ccc(Cl)cc2)NC(=O)c2cccc(c2)CN1 [X B5 D3 W Acid 25] | –
– | – | 0.13 | 0.05 | O=C1CCSSCCNC(=O)C(Cc2ccccc2)NC(=O)C2CC(NC(=O)c3ccc(Cl)cc3)CN2C(=O)c2cccc(c2)CN1 (centres unmarked) [X B5 D5 F Acid 25] | –
-0.13 | 0.0168 | – | – | O=C(C=Cc1ccccc1)NC1CC2C(=O)NC(Cc3c[nH]c4ccccc34)C(=O)NCCSSCCC(=O)NCc3cccc(c3)C(=O)N2C1 (centres unmarked) [X B5 D5 W Acid 91] | –
– | – | 0.0462 | 0.07 | O=C1CCSSCCNC(=O)[C@H](Cc2ccccc2)NC(=O)C2(CCN(C(=O)c3ccc(Cl)cc3)CC2)NC(=O)c2cccc(c2)CN1 [X B5 D6 F Acid 25] | –
– | – | 0.09 | 0.15 | O=C1CCSSCCNC(=O)C(Cc2c[nH]c3ccccc23)NC(=O)C2CN(C(=O)c3ccc(Cl)cc3)CCN2C(=O)c2cccc(c2)CN1 (centres unmarked) [X B5 D7 W Acid 25] | –
– | – | 0.09 | 0.0465 | O=C1CCSSCCNC(=O)[C@H](CNC(=O)c2ccc(Cl)cc2)NC(=O)[C@H](Cc2ccccc2)NC(=O)c2cccc(c2)CN1 [X B5 F D3 Acid 25] | –
– | – | 0.0244 | 0.10 | O=C1CCSSCCNC(=O)[C@@H]2C[C@H](NC(=O)c3ccc(Cl)cc3)CN2C(=O)[C@H](Cc2ccccc2)NC(=O)c2cccc(c2)CN1 [X B5 F D5 Acid 25] | –
– | – | 0.0244 | 0.0465 | O=C1CCSSCCNC(=O)C2(CCN(C(=O)c3ccc(Cl)cc3)CC2)NC(=O)C(Cc2ccccc2)NC(=O)c2cccc(c2)CN1 (centres unmarked) [X B5 F D6 Acid 25] | –
– | – | 0.15 | 0.12 | O=C1CCSSCCNC(=O)[C@H](CNC(=O)c2ccc(Cl)cc2)NC(=O)[C@H](Cc2c[nH]c3ccccc23)NC(=O)c2cccc(c2)CN1 [X B5 W D3 Acid 25] | –

The next lines start with the compound.

Structure (SMILES) | fraction fluorescent probe displaced, Screen (Acid 91) | fraction fluorescent probe displaced, Replicate (Acid 91) | fraction fluorescent probe displaced, Screen (Acid 25) | fraction fluorescent probe displaced, Replicate (Acid 25) | other results
O=C(/C=C/c1ccccc1)NC[C@@H]1NC(=O)c2cccc(c2)CNC(=O)CCSSCCNC(=O)[C@H](Cc2ccccc2)NC1=O [X B5 D3 F Acid 91] | -0.05 | 0.0168 | – | – | –
O=C(C=Cc1ccccc1)NCC1NC(=O)c2cccc(c2)CNC(=O)CCSSCCNC(=O)C(Cc2c[nH]c3ccccc23)NC1=O (centres unmarked) [X B5 D3 W Acid 91] | 0.16 | 0.29 | – | – | –
O=C1CCSSCCNC(=O)C(Cc2ccccc2)NC(=O)C2(CCN(C(=O)c3ccc(Cl)s3)CC2)NC(=O)c2cccc(c2)CN1 (centres unmarked) [X B5 D6 F Acid 14] | – | – | – | – | fraction fluorescent probe displaced, Screen (Acid 14): -0.0116; fraction fluorescent probe displaced, Replicate (Acid 14): 0.05
O=C1CCSSCCNC(=O)C(Cc2ccccc2)NC(=O)C2(CCN(C(=O)C=Cc3ccccc3)CC2)NC(=O)c2cccc(c2)CN1 (centres unmarked) [X B5 D6 F Acid 91] | -0.10 | -0.08 | – | – | –
O=C1CCSSCCNC(=O)[C@H](Cc2c[nH]c3ccccc23)NC(=O)C2(CCN(C(=O)c3ccc(Cl)cc3)CC2)NC(=O)c2cccc(c2)CN1 [X B5 D6 W Acid 25] | – | – | 0.12 | 0.15 | –
O=C1CCSSCCNC(=O)C(Cc2c[nH]c3ccccc23)NC(=O)C2CN(C(=O)C=Cc3ccccc3)CCN2C(=O)c2cccc(c2)CN1 (centres unmarked) [X B5 D7 W Acid 91] | -0.10 | -0.06 | – | – | –
O=C1CCSSCCNC(=O)[C@H](CNC(=O)c2ccc(Cl)s2)NC(=O)[C@H](Cc2ccccc2)NC(=O)c2cccc(c2)CN1 [X B5 F D3 Acid 14] | – | – | – | – | fraction fluorescent probe displaced, Screen (Acid 14): 0.053; fraction fluorescent probe displaced, Replicate (Acid 14): 0.0211
O=C(/C=C/c1ccccc1)NC[C@@H]1NC(=O)[C@H](Cc2ccccc2)NC(=O)c2cccc(c2)CNC(=O)CCSSCCNC1=O [X B5 F D3 Acid 91] | -0.05 | -0.00827 | – | – | –
O=C1CCSSCCNC(=O)[C@@H]2C[C@H](NC(=O)c3ccc(Cl)s3)CN2C(=O)[C@H](Cc2ccccc2)NC(=O)c2cccc(c2)CN1 [X B5 F D5 Acid 14] | – | – | – | – | fraction fluorescent probe displaced, Screen (Acid 14): 0.0241; fraction fluorescent probe displaced, Replicate (Acid 14): -0.00432
O=C1CCSSCCNC(=O)C2CN(C(=O)C=Cc3ccccc3)CCN2C(=O)C(Cc2ccccc2)NC(=O)c2cccc(c2)CN1 (centres unmarked) [X B5 F D7 Acid 91] | -0.05 | -0.06 | – | – | –
O=C(/C=C/c1ccccc1)NC[C@@H]1NC(=O)[C@H](Cc2c[nH]c3ccccc23)NC(=O)c2cccc(c2)CNC(=O)CCSSCCNC1=O [X B5 W D3 Acid 91] | 0.16 | 0.12 | – | – | –
O=C(C=Cc1ccccc1)NC1CC2C(=O)NCCSSCCC(=O)NCc3cccc(c3)C(=O)NC(Cc3c[nH]c4ccccc34)C(=O)N2C1 (centres unmarked) [X B5 W D5 Acid 91] | 0.00268 | 0.12 | – | – | –
O=C1CCSSCCNC(=O)C2(CCN(C(=O)c3ccc(Cl)s3)CC2)NC(=O)C(Cc2c[nH]c3ccccc23)NC(=O)c2cccc(c2)CN1 (centres unmarked) [X B5 W D6 Acid 14] | – | – | – | – | fraction fluorescent probe displaced, Screen (Acid 14): 0.20; fraction fluorescent probe displaced, Replicate (Acid 14): 0.33
O=C1CCSSCCNC(=O)C2(CCN(C(=O)c3ccc(Cl)cc3)CC2)NC(=O)[C@H](Cc2c[nH]c3ccccc23)NC(=O)c2cccc(c2)CN1 [X B5 W D6 Acid 25] | – | – | 0.09 | 0.28 | –
O=C1CCSSCCNC(=O)C2(CCN(C(=O)/C=C/c3ccccc3)CC2)NC(=O)[C@H](Cc2c[nH]c3ccccc23)NC(=O)c2cccc(c2)CN1 [X B5 W D6 Acid 91] | 0.16 | 0.17 | – | – | –
O=C1CCSSCCNC(=O)C2CN(C(=O)c3ccc(Cl)cc3)CCN2C(=O)C(Cc2c[nH]c3ccccc23)NC(=O)c2cccc(c2)CN1 (centres unmarked) [X B5 W D7 Acid 25] | – | – | 0.12 | 0.07 | –
O=C1CCSSCCNC(=O)C2CN(C(=O)C=Cc3ccccc3)CCN2C(=O)C(Cc2c[nH]c3ccccc23)NC(=O)c2cccc(c2)CN1 (centres unmarked) [X B5 W D7 Acid 91] | 0.03 | -0.00827 | – | – | –
O=C1CCSSCCNC(=O)[C@H](Cc2ccccc2)NC(=O)[C@@H]2CCCN2C(=O)[C@H](CNC(=O)c2ccc(Cl)s2)N1 [X D3 B1 F Acid 14] ([Mpa][Dap](2Thenoyl(5-Cl))PF-Cysteamide; disulfide 1-C) | – | – | – | – | fraction fluorescent probe displaced, Screen (Acid 14): 0.11; fraction fluorescent probe displaced, Replicate (Acid 14): 0.07
O=C1CCSSCCNC(=O)[C@H](Cc2ccccc2)NC(=O)[C@@H]2CCCN2C(=O)[C@H](CNC(=O)c2ccc(Cl)cc2)N1 [X D3 B1 F Acid 25] ([Mpa][Dap](Benzoyl(4-Cl))PF-Cysteamide; disulfide 1-C) | – | – | 0.15 | 0.12 | –

Reference: PMC9250534, “Synthesis and direct assay of large macrocycle diversities by combinatorial late-stage modification at picomole scale” (Nature Communications, 2022)
